# Experimental data as given in US11248234B2, “Herbicide-resistant hydroxyphenylpyruvate dioxygenases” (BASF SE, priority 2015, dated 2022).
# Entries after “also recorded” stand apart in the source; their conditions may differ.
# Assays:
# [1] = target: T1, Arabidopsis HPPD (Seq ID: 42) (Arabidopsis thaliana, UniProt P93836); test: In vitro HPPD activity assay (homogentisic acid by HPLC); assay type: biochemical; conditions: benchmark enzyme; normalized on Arabidopsis wild-type HPPD
# T1 construct: His6; made in house; host or cells: E. coli BL21 (DE3)
# T1 sequence (P93836 1-445): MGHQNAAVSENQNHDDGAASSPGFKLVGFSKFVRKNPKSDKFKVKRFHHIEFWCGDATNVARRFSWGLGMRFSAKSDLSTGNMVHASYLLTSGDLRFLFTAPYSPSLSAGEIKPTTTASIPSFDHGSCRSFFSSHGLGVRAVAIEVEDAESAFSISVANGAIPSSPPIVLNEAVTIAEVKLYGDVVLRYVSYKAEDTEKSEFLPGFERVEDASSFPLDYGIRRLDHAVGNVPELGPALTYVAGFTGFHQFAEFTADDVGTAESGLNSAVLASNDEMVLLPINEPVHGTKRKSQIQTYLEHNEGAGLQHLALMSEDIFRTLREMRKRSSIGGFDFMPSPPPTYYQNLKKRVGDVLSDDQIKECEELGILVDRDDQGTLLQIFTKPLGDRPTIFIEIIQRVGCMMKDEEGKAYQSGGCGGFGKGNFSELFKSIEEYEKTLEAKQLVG
# Experimental: (§1) HPPD produces homogentisic acid and CO2 from 4-hydroxyphenylpyruvate (4-HPP) and O2. The activity assay for HPPD is based on the analysis of homogentisic acid by reversed phase HPLC.
# (§2) The assay mixture can contain 150 mM potassium phosphate buffer pH 7.0, 50 mM L-ascorbic acid, 100 μM Catalase (Sigma-Aldrich), 1 μM FeSO4 and 0.2 units of purified mutated HPPD enzyme in a total volume of 505 μl. 1 unit is defined as the amount of enzyme that is required to produce 1 nmol of HGA per minute at 20° C.
# (§3) After a preincubation of 30 min the reaction is started by adding 4-HPP to a final concentration of 0.05 mM. The reaction is allowed to proceed for 45 min at room temperature. The reaction is stopped by the addition of 50 μl of 4.5 M phosphoric acid. The sample is filtered using a […] pore size PVDF filtration device.
# (§4) 5 μl of the cleared sample is analyzed on an UPLC HSS T3 column (particle size 1.8 μm, dimensions 2.1×50 mm; Waters) by isocratic elution using 90% 20 mM NaH2PO4 pH 2.2, 10% methanol (v/v).
# (§5) HGA is detected electrochemically at 750 mV (mode: DC; polarity: positive) and quantified by integrating peak areas (Empower software; Waters).
# Inhibitors are dissolved in DMSO (dimethylsulfoxide) to a concentration of 0.5 mM. From this stock solution serial five-fold dilutions are prepared in DMSO, which are used in the assay. The respective inhibitor solution accounts for 1% of the assay volume. […] Activities are normalized by setting the uninhibited enzyme activity to 100%. IC50 values are calculated using non-linear regression.
# Using methods which are described in the above examples or well known in the art, purified, recombinant mutated HPPD enzymes are characterized with respect to their kinetic properties and sensitivity towards HPPD inhibiting herbicides. Apparent michaelis constants (Km) and maximal reaction velocities (Vmax) are calculated by non-linear regression with the software GraphPad Prism 5 (GraphPad Software, La Jolla, USA) using a substrate inhibition model. […] Weighted means (by standard error) of Km and IC50 values are calculated from at least three independent experiments.
# (§6) Field performance of the HPPD enzyme, which is used as a herbicide tolerance trait may depend not only on its lack of sensitivity towards HPPD inhibiting herbicides but also on its activity. To assess the potential performance of a herbicide tolerance trait a tolerance index (TI) is calculated using the following formula: […]
# (§7) Easy comparison and ranking of each trait is enabled by normalizing tolerance indexes on Arabidopsis wild-type HPPD.
# [2] = target: Scenedesmus HPPD (Seq ID: 2) (Tetradesmus obliquus, UniProt A0A383WMN4, N195D); test: In vitro HPPD activity assay; assay type: biochemical; conditions: normalized on Arabidopsis wild-type HPPD (SEQ ID NO:42)
# Experimental: as §1, §2, §3, §4, §5
# (§8) Inhibitors are dissolved in DMSO (dimethylsulfoxide) to a concentration of 0.5 mM. From this stock solution serial five-fold dilutions are prepared in DMSO, which are used in the assay. The respective inhibitor solution accounts for 1% of the assay volume. Thus, final inhibitor concentrations range from 5 μM to 320 pM, respectively. Activities are normalized by setting the uninhibited enzyme activity to 100%. IC50 values are calculated using non-linear regression.
# (§9) Using methods which are described in the above examples or well known in the art, purified, recombinant mutated HPPD enzymes are characterized with respect to their kinetic properties and sensitivity towards HPPD inhibiting herbicides. Apparent michaelis constants (Km) and maximal reaction velocities (Vmax) are calculated by non-linear regression with the software GraphPad Prism 5 (GraphPad Software, La Jolla, USA) using a substrate inhibition model. Apparent kcat values are calculated from Vmax assuming 100% purity of the enzyme preparation. Weighted means (by standard error) of Km and IC50 values are calculated from at least three independent experiments. The Cheng-Prusoff equation for competitive inhibition (Cheng, Y. C.; Prusoff, W. H. Biochem Pharmacol 1973, 22, 3099-3108) is used to calculate dissociation constants (Ki).
# as §6, §7
# [3] = target: Scenedesmus Short HPPD (Seq ID: 4) (Tetradesmus obliquus, UniProt A0A383WMN4, DEL398-433/N195D); test: In vitro HPPD activity assay; assay type: biochemical; conditions: normalized on Arabidopsis wild-type HPPD (SEQ ID NO:42)
# Experimental: as §1, §2, §3, §4, §5, §8, §9, §6, §7
# [4] = tested on: SoHPPD A318P, A319P (short); test: In vitro HPPD activity assay; assay type: biochemical, Scenedesmus obliquus; conditions: normalized on Arabidopsis wild-type HPPD (SEQ ID NO:42)
# Experimental: as §1, §2, §3, §4, §5, §8, §9, §6, §7
# [5] = tested on: SoHPPD A318R, L350M (short); test: In vitro HPPD activity assay; assay type: biochemical, Scenedesmus obliquus; conditions: normalized on Arabidopsis wild-type HPPD (SEQ ID NO:42)
# Experimental: as §1, §2, §3, §4, §5, §8, §9, §6, §7
# [6] = tested on: SoHPPD A318R, L350M; test: In vitro HPPD activity assay; assay type: biochemical, Scenedesmus obliquus; conditions: normalized on Arabidopsis wild-type HPPD (SEQ ID NO:42)
# Experimental: as §1, §2, §3, §4, §5, §8, §9, §6, §7
# [7] = tested on: SoHPPD E345Q (short); test: In vitro HPPD activity assay; assay type: biochemical, Scenedesmus obliquus; conditions: normalized on Arabidopsis wild-type HPPD (SEQ ID NO:42)
# Experimental: as §1, §2, §3, §4, §5, §8, §9, §6, §7
# [8] = tested on: SoHPPD E379Q (short); test: In vitro HPPD activity assay; assay type: biochemical, Scenedesmus obliquus; conditions: normalized on Arabidopsis wild-type HPPD (SEQ ID NO:42)
# Experimental: as §1, §2, §3, §4, §5, §8, §9, §6, §7
# [9] = tested on: SoHPPD F363I (short); test: In vitro HPPD activity assay; assay type: biochemical, Scenedesmus obliquus; conditions: normalized on Arabidopsis wild-type HPPD (SEQ ID NO:42)
# Experimental: as §1, §2, §3, §4, §5, §8, §9, §6, §7
# [10] = tested on: SoHPPD F363I; test: In vitro HPPD activity assay; assay type: biochemical, Scenedesmus obliquus; conditions: normalized on Arabidopsis wild-type HPPD (SEQ ID NO:42)
# Experimental: as §1, §2, §3, §4, §5, §8, §9, §6, §7
# [11] = tested on: SoHPPD F39W, L367V, I375L (short); test: In vitro HPPD activity assay; assay type: biochemical, Scenedesmus obliquus; conditions: normalized on Arabidopsis wild-type HPPD (SEQ ID NO:42)
# Experimental: as §1, §2, §3, §4, §5, §8, §9, §6, §7
# [12] = tested on: SoHPPD H306K (short); test: In vitro HPPD activity assay; assay type: biochemical, Scenedesmus obliquus; conditions: normalized on Arabidopsis wild-type HPPD (SEQ ID NO:42)
# Experimental: as §1, §2, §3, §4, §5, §8, §9, §6, §7
# [13] = tested on: SoHPPD I419V (short); test: In vitro HPPD activity assay; assay type: biochemical, Scenedesmus obliquus; conditions: normalized on Arabidopsis wild-type HPPD (SEQ ID NO:42)
# Experimental: as §1, §2, §3, §4, §5, §8, §9, §6, §7
# [14] = tested on: SoHPPD I455V; test: In vitro HPPD activity assay; assay type: biochemical, Scenedesmus obliquus; conditions: normalized on Arabidopsis wild-type HPPD (SEQ ID NO:42)
# Experimental: as §1, §2, §3, §4, §5, §8, §9, §6, §7
# [15] = tested on: SoHPPD K326E, E345Q (short); test: In vitro HPPD activity assay; assay type: biochemical, Scenedesmus obliquus; conditions: normalized on Arabidopsis wild-type HPPD (SEQ ID NO:42)
# Experimental: as §1, §2, §3, §4, §5, §8, §9, §6, §7
# [16] = tested on: SoHPPD L367V, I375L (short); test: In vitro HPPD activity assay; assay type: biochemical, Scenedesmus obliquus; conditions: normalized on Arabidopsis wild-type HPPD (SEQ ID NO:42)
# Experimental: as §1, §2, §3, §4, §5, §8, §9, §6, §7
# [17] = tested on: SoHPPD L367V, I375L; test: In vitro HPPD activity assay; assay type: biochemical, Scenedesmus obliquus; conditions: normalized on Arabidopsis wild-type HPPD (SEQ ID NO:42)
# Experimental: as §1, §2, §3, §4, §5, §8, §9, §6, §7
# [18] = tested on: SoHPPD Q317H (short); test: In vitro HPPD activity assay; assay type: biochemical, Scenedesmus obliquus; conditions: normalized on Arabidopsis wild-type HPPD (SEQ ID NO:42)
# Experimental: as §1, §2, §3, §4, §5, §8, §9, §6, §7
# [19] = tested on: SoHPPD Q317H, A318G, E345Q (short); test: In vitro HPPD activity assay; assay type: biochemical, Scenedesmus obliquus; conditions: normalized on Arabidopsis wild-type HPPD (SEQ ID NO:42)
# Experimental: as §1, §2, §3, §4, §5, §8, §9, §6, §7
# [20] = tested on: SoHPPD Q317H, A318G, E345Q; test: In vitro HPPD activity assay; assay type: biochemical, Scenedesmus obliquus; conditions: normalized on Arabidopsis wild-type HPPD (SEQ ID NO:42)
# Experimental: as §1, §2, §3, §4, §5, §8, §9, §6, §7
# [21] = tested on: SoHPPD Q317H; test: In vitro HPPD activity assay; assay type: biochemical, Scenedesmus obliquus; conditions: normalized on Arabidopsis wild-type HPPD (SEQ ID NO:42)
# Experimental: as §1, §2, §3, §4, §5, §8, §9, §6, §7
# [22] = tested on: SoHPPD Q317M (short); test: In vitro HPPD activity assay; assay type: biochemical, Scenedesmus obliquus; conditions: normalized on Arabidopsis wild-type HPPD (SEQ ID NO:42)
# Experimental: as §1, §2, §3, §4, §5, §8, §9, §6, §7
# [23] = tested on: SoHPPD V251A (short); test: In vitro HPPD activity assay; assay type: biochemical, Scenedesmus obliquus; conditions: normalized on Arabidopsis wild-type HPPD (SEQ ID NO:42)
# Experimental: as §1, §2, §3, §4, §5, §8, §9, §6, §7
# Sequence of Scenedesmus HPPD (Seq ID: 2) (A0A383WMN4 entry or part of it N195D): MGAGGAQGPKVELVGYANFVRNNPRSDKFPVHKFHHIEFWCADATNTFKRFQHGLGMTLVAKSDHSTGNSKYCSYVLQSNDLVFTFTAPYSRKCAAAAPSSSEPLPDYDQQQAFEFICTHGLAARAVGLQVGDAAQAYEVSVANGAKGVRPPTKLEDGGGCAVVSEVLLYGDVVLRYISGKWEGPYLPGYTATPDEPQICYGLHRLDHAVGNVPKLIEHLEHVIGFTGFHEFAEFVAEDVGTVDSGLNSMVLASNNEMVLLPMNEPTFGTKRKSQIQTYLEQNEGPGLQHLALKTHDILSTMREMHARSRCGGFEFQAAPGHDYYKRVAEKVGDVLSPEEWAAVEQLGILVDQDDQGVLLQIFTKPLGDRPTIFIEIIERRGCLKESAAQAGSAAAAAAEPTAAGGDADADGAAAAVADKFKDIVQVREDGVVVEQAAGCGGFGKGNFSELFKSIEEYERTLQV
# Sequence of Scenedesmus Short HPPD (Seq ID: 4) (A0A383WMN4 entry or part of it N195D/DEL398-433): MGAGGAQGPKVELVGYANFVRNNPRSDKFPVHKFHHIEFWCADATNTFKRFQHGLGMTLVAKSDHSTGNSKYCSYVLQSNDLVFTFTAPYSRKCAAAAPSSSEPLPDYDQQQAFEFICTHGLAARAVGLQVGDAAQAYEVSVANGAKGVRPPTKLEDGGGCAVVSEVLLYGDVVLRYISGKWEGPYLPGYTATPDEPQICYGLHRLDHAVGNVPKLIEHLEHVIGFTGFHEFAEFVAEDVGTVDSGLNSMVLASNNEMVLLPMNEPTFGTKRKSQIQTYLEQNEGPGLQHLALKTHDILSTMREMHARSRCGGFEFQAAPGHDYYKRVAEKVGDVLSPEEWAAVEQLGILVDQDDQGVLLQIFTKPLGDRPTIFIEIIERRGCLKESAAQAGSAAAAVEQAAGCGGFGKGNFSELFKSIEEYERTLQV
smiles,measurement,setting,value
"CC[S+]([O-])c1c(Cl)cc(F)c(C(=O)Nc2nnnn2C)c1Cl (centres unmarked) [Inhibitor 9, 2,4-dichloro-3-ethylsulfinyl-6-fluoro-N-(1-methyltetrazol-5-yl)benzamide]",TI (normalized tolerance index),[1],1.0
same,TI (normalized tolerance index),[2],0.1
same,TI (normalized tolerance index),[3],1.2
same,TI (normalized tolerance index),[4],0.7
same,TI (normalized tolerance index),[5],1.2
same,TI (normalized tolerance index),[6],0.2
same,TI (normalized tolerance index),[7],0.2
same,TI (normalized tolerance index),[8],0.2
same,TI (normalized tolerance index),[9],not inhibited; also recorded: no inhi-
same,TI (normalized tolerance index),[10],"2,7"
same,TI (normalized tolerance index),[11],0.2
same,TI (normalized tolerance index),[12],0.2
same,TI (normalized tolerance index),[13],0.3
same,TI (normalized tolerance index),[14],0.4
same,TI (normalized tolerance index),[15],0.1
same,TI (normalized tolerance index),[16],0.4
same,TI (normalized tolerance index),[17],0.1
same,TI (normalized tolerance index),[18],0.7
same,TI (normalized tolerance index),[19],0.9
same,TI (normalized tolerance index),[20],0.1
same,TI (normalized tolerance index),[21],0.1
same,TI (normalized tolerance index),[22],1.1
same,TI (normalized tolerance index),[23],0.1
